{"source": "patent US6586422B2", "about": "“Pyrazine and triazine derivatives of 1,2,4,5-tetrahydro-Benzo or Thieno [d] azepine” (Hoffman-La Roche Inc., priority 2000, dated 2003)", "biological_target": "T1, rat mGluR1a receptor (Rattus norvegicus, UniProt P23385)", "T1 construct": "expressed in transfected cells; host or cells: HEK 293 cells (transient transfection; membranes used)", "T1 sequence (P23385 19-1199)": "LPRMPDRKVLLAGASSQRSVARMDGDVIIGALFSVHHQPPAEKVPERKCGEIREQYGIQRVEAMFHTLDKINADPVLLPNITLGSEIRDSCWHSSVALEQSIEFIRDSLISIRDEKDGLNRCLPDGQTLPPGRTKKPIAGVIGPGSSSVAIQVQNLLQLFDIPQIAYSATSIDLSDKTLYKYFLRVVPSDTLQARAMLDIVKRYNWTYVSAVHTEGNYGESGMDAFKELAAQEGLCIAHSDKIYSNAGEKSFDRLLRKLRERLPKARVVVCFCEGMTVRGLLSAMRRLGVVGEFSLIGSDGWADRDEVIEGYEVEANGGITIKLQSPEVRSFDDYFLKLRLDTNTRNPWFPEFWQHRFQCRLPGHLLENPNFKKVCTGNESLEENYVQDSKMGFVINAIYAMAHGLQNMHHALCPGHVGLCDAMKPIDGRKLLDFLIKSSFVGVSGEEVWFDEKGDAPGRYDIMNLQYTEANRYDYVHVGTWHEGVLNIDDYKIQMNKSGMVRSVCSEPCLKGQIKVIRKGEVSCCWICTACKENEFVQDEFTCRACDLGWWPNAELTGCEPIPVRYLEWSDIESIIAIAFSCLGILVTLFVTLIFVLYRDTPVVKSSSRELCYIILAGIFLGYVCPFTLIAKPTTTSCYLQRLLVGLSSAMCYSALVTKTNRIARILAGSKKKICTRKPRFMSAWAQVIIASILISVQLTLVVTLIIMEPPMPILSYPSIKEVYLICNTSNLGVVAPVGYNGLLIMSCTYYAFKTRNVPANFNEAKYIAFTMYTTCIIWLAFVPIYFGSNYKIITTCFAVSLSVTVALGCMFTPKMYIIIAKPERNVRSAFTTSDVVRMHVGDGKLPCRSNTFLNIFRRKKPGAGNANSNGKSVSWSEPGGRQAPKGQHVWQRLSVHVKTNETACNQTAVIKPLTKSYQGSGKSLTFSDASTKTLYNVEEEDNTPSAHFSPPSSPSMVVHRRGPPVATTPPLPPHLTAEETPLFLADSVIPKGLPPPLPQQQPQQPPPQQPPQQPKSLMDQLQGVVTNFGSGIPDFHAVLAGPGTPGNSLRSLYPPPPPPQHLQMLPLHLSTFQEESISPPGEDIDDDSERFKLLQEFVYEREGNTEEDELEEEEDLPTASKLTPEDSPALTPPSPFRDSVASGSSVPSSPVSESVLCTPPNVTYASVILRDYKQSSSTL", "assay": "Binding assay for the characterization of mGluR 1 antagonistic properties (tritiated radioligand displacement, membranes of transfected HEK 293 cells)", "settings": "membranes of HEK 293 cells transiently transfected with rat mGluR1a; radioligand 3 nM; 1 hour at room temperature; read-out: B-IC50", "method": "Binding Assay for the Characterization of mGluR 1 Antagonistic Properties\nBinding assay with tritiated 1-ethyl-2-methyl-6-oxo-4-(1,1,2-tritritio-1,2,4,5-tetrahydro-benzo[d]azepin-3-yl)-1,6-dihydro-pyrimidine-5-carbonitrile (Eur. Pat. Appl. EP 1 074 549 A2): HEK 293 cells were transiently transfected with the rat mGluR1a receptor. The cells were collected and washed 3 times with PBS. The cell pellets were frozen at −80° C. Membranes were prepared from HEK 293 cells transfected with the rat mGluR1a receptor and used in the binding experiments at 10 μg proteins per assay after resuspension in a HEPES NaOH 20 mM, pH=7.4 binding buffer. 1-Ethyl-2-methyl-6-oxo-4-(1,1,2-tritritio-1,2,4,5-tetrahydro-benzo[d]azepin-3-yl)-1,6-dihydro-pyrimidine-5-carbonitrile (S.A 33.4 Ci/mmol) was used at 3 nM final concentration. The incubation with variable concentrations of potential inhibitors was performed for 1 hour at room temperature, the incubate was then filtered onto GF/B glass fiber filter preincubated 1 hour in PEI 0,1% and washed 3 times with 1 ml of cold binding buffer. The radioactivity retained on the unifilter 96 was counted using a Topcount β counter. After correction for non specific binding the data were normalized and the IC50 value calculated using a 4 parameters logistic equation which was fitted to the inhibition curve."}
{"smiles": "CN(C)c1nnc(C#N)c(N2CCc3ccccc3CC2)n1", "note": "[Example 3, 3-Dimethylamino-5-(1,2,4,5-tetrahydro-benzo[d]azepin-3-yl)-[1,2,4]triazine-6-carbonitrile]", "values": [{"measurement": "IC50", "result": 1380, "unit": "nM"}]}
{"smiles": "N#Cc1nnc(N)nc1N1CCc2ccccc2CC1", "note": "[Example 2, 3-Amino-5-(1,2,4,5-tetrahydro-benzo[d]azepin-3-yl)-[1,2,4]triazine-6-carbonitrile]", "values": [{"measurement": "IC50", "result": 27, "unit": "nM"}]}
{"smiles": "CC(C)(C)OC(=O)NCCNc1nnc(C#N)c(N2CCc3ccccc3CC2)n1", "note": "[Example 8, {2-[6-Cyano-5-(1,2,4,5-tetrahydro-benzo[d]azepin-3-yl)-[1,2,4]triazin-3-ylamino]-ethyl}-Carbamic Acid Tert-Butyl Ester]", "values": [{"measurement": "IC50", "result": 27, "unit": "nM"}]}
{"smiles": "N#Cc1ncc(NCCO)nc1N1CCc2ccccc2CC1", "note": "[Example 15, 5-(2-Hydroxy-ethylamino)-3-(1,2,4,5-tetrahydro-benzo[d]azepin-3-yl)-pyrazine-2-carbonitrile]", "values": [{"measurement": "IC50", "result": 500, "unit": "nM"}]}
{"smiles": "CC(O)CNc1nnc(C#N)c(N2CCc3ccccc3CC2)n1", "note": "(racemic) [Example 6, (RS)-3-(2-Hydroxy-propylamino)-5-(1,2,4,5-tetrahydro-benzo[d]azepin-3-yl)-[1,2,4]triazine-6-carbonitrile]", "values": [{"measurement": "IC50", "result": 27, "unit": "nM"}]}
{"smiles": "N#Cc1nccnc1N1CCc2ccccc2CC1", "note": "[Example 13, 3-(1,2,4,5-Tetrahydro-benzo[d]azepin-3-yl)-pyrazine-2-carbonitrile]", "values": [{"measurement": "IC50", "result": 470, "unit": "nM"}]}
{"smiles": "N#Cc1nnc(NCCc2cccnc2)nc1N1CCc2ccccc2CC1", "note": "[Example 9, 3-(2-Pyridin-3-yl-ethylamino)-5-(1,2,4,5-tetrahydro-benzo[d]azepin-3-yl)-[1,2,4]triazine-6-carbonitrile]", "values": [{"measurement": "IC50", "result": 29, "unit": "nM"}]}
{"smiles": "N#Cc1nnc(NCC2CC2)nc1N1CCc2ccccc2CC1", "note": "[Example 4, 3-(Cyclopropylmethyl-amino)-5-(1,2,4,5-tetrahydro-benzo[d]azepin-3-yl)-[1,2,4]triazine-6-carbonitrile]", "values": [{"measurement": "IC50", "result": 5, "unit": "nM"}]}
{"smiles": "N#Cc1nnc(NN)nc1N1CCc2ccccc2CC1", "note": "[Example 7, 3-Hydrazino-5-(1,2,4,5-tetrahydro-benzo[d]azepin-3-yl)-[1,2,4]triazine-6-carbonitrile]", "values": [{"measurement": "IC50", "result": 370, "unit": "nM"}]}
{"smiles": "Cc1nc(N2CCc3ccccc3CC2)c(C#N)nc1-c1ccccc1", "note": "[Example 14, 5-Methyl-6-phenyl-3-(1,2,4,5-tetrahydro-benzo[d]azepin-3-yl)-pyrazine-2-carbonitrile]", "values": [{"measurement": "IC50", "result": 45, "unit": "nM"}]}
{"smiles": "COCCOc1nnc(C#N)c(N2CCc3ccccc3CC2)n1", "note": "[Example 1, 3-(2-Methoxy-ethoxy)-5-(1,2,4,5-tetrahydro-benzo[d]azepin-3-yl)-[1,2,4]triazine-6-carbonitrile]", "values": [{"measurement": "IC50", "result": 3000, "unit": "nM"}]}
{"smiles": "N#Cc1nnc(NCCO)nc1N1CCc2ccccc2CC1", "note": "[Example 5, 3-(2-Hydroxy-ethylamino)-5-(1,2,4,5-tetrahydro-benzo[d]azepin-3-yl)-[1,2,4]triazine-6-carbonitrile]", "values": [{"measurement": "IC50", "result": 31, "unit": "nM"}]}
